The source of these data is PMC4884984, “Identification of approved and investigational drugs that inhibit hypoxia-inducible factor-1 signaling” (Oncotarget, 2016).

Like-named read-outs stand apart in the source and are kept apart here.

Assay [1] relates to HIF-1α–NanoLuc HCT116 cells. As to the kind of experiment: Viability (Luc): CellTiter-Glo counter screen in HIF-1α–NanoLuc cells. Type of assay: cell-based, human. The settings on record: Table S7, 1% O2, 18 h. (In ATP-based viability assays light output follows the ATP content of the culture.)
The test system of assay [2] is HRE–bla ME-180 cells. The assay can be described thus: Viability (BLA): CellTiter-Glo counter screen in HRE–bla cells. Type of assay: cell-based, human.
Method: (§1) Cell culture of HRE–bla ME-180 cells (Cat. No. K1644, Life Technologies) and HRE–bla assay were conducted according to a reported protocol [6]. […] The fluorescence signals (460/25 nm and 530/20 nm) of CCF4 and luminescence signals of CellTiter-Glo were acquired on an Envision and a ViewLux plate readers (Perkin Elmer), respectively.
Assay [3] relates to HIF-1α–NanoLuc. As to the kind of experiment: HIF-1α–NanoLuc reporter gene assay (qHTS primary and confirmatory screens). Type of assay: cell-based, human. The note with it: Homo sapiens. In general terms: A reporter such as luciferase makes a cellular process visible.
Assay [4] deals with HCT116 cells. The assay can be described thus: Cancer cell proliferation assay, HCT116. Type of assay: cell-based, human. The note with it: Table 1, 72 h.
Method: (§2) HCT116 and ME-180 cells (ATCC) were cultured according to manufacturer's instructions. […] Cell proliferation was quantified as relative luminescence unit (RLU) values using CellTiter-Glo viability assay reagent on a ViewLux plate reader (Perkin Elmer).
Assay [5] concerns hypoxia signaling genes. As to the kind of experiment: Real-time qPCR of human hypoxia signaling gene panel in ME-180 cells. The note with it: 1% O2, 18 h, at IC50 concentration of HIF-1α–NanoLuc assay. (Quantitative PCR measures a nucleic acid by following its amplification.)
The subject of assay [6] is ME-180 cells. As to the kind of experiment: Cancer cell proliferation assay, ME-180. The settings on record: Homo sapiens, ME-180; Table 1; 72 h; read-out: 72-hr Viability ME-180 IC50. Type of assay: cell-based.
Method: as §2
Assay [7] deals with co-cultures of human aortic endothelial cells and human mesenchymal stem cells. As to the kind of experiment: In vitro angiogenesis co-culture assay (tube formation). Type of assay: cell-based. The note with it: three-day exposure; for IC50 / Emax: Homo sapiens, 72 h, Table 1; for IC50: tube formation; for Emax: percentage of inhibition compared to DMSO controls, read-out: Angiogenesis Efficacy (converted); for Angiogenesis inhibition, result in words: co-culture assay.
Method: Cells were seeded in a 96-well clear bottom plate (Corning) for five hours and exposed to test compounds for three days at 37°C, 5% CO2.

The test system of assay [8] is hypoxia response element-beta-lactamase (HRE–bla). The assay can be described thus: HRE-bla reporter gene assay in ME-180 cells. Type of assay: cell-based, human. The settings on record: Homo sapiens; for Emax: ME-180; for IC50: ME-180 cells, 1% O2, 18 h, read-out: HRE-bla IC50.
Method: as §1
Setting [9] is: HCT-116, Table 1, HCT116 reporter cells, hypoxia 1% O2, 18 h, confirmatory, read-out: HIF-1α-NanoLuc IC50.
The mark [10] stands for this setting: Table 1, percentage of inhibition compared to DMSO controls, read-out: HIF-1α-NanoLuc Efficacy (converted).
[11] abbreviates: Table S2, validation, read-out: Pathway inhibitors (validation) HIF-1α–NanoLuc Activity Efficacy.
Where [12] appears, read: Table S7, confirmatory screen, read-out: HIF-1α–NanoLuc confirmatory Efficacy.
[13] abbreviates: Table 1, percentage of inhibition compared to DMSO controls, read-out: HRE-bla Efficacy (converted).
Setting [14] is: Table S7, confirmatory screen, read-out: HRE–bla confirmatory Efficacy.

The term IC50 denotes the concentration that inhibits the measured activity by half. As for `Oc1cccc(-c2nc(N3CCOCC3)c3oc4ncccc4c3n2)c1` [PI-103], the “Viability (Luc) confirmatory IC50” value in assay [1] is “Inactive”. Also, the IC50 worked out at 770 ± 250 nM in assay [2] (Homo sapiens, ME-180, Table S7, confirmatory screen, 1% O2, 18 h); 920 ± 60 nM in assay [3] (setting [9]); 2770 ± 40 nM in assay [3] (Table S2, validation, read-out: Pathway inhibitors (validation) HIF-1α–NanoLuc Activity IC50); 370 ± 20 nM in assay [6]; 320 ± 90 nM in assay [7]; 150 ± 20 nM in assay [8] (Table 1). Moreover, the Emax in assay [3] (setting [10]) is 57%; in assay [3] (setting [11]), 80 ± 3%; in assay [3] (setting [12]), 57 ± 10%; in assay [7], 80%; in assay [8] (setting [13]) it was 62%; in assay [8] (setting [14]), 62 ± 3%. Besides, in assay [4], the “72-hr Viability HCT116 IC50” value is “Inactive”. In addition, the “Effect on expression of hypoxia-induced genes, in words” value in assay [5] is given as “decreased the expression levels of all hypoxia-induced genes tested”. In assay [7], the “Angiogenesis inhibition, result in words” value was “submicromolar concentrations”.

Consider `CC(=O)Nc1cccc(-n2c(=O)n(C3CC3)c(=O)c3c(Nc4ccc(I)cc4F)n(C)c(=O)c(C)c32)c1` [Trametinib], for which the “Viability (Luc) confirmatory IC50” value in assay [1] is given as “Inactive”. For the same molecule, in assay [2] (Table S7, 1% O2, 18 h), the “Viability (BLA) confirmatory IC50” value was “Inactive”. Moreover, the IC50 in assay [3] (setting [9]) turned out to be 2980 ± 4640 nM; in assay [4] (Homo sapiens, HCT-116, read-out: 72-hr Viability HCT116 IC50) it was 640 ± 110 nM; in assay [6], 60 ± 20 nM; in assay [7], 0.05 ± 0.05 nM; in assay [8] (Table 1), 20500 ± 8110 nM. Moreover, the Emax is 69% in assay [3] (setting [10]); 69 ± 5% in assay [3] (setting [11]); 69 ± 5% in assay [3] (setting [12]); 89% in assay [7]; 53% in assay [8] (setting [13]); 53 ± 9% in assay [8] (setting [14]). In addition, in assay [5], the “Effect on expression of hypoxia-induced genes, in words” value was “decreased expression levels of HIF1A and many hypoxia responsive genes”. In addition, the “Angiogenesis inhibition, result in words” value in assay [7] was “picomolar IC50 value”.
